From patent EP1698638A1, “Lipopeptides having pharmaceutical activity” (Technische Universität Berlin, priority 2005, dated 2006)

Experiments:
Test in all cases: microdilution assay (NCCLS), inhibitory concentration (IC)
[1] = test system: Aspergillus fumigatus RKI 584/00; format: cell-based; details: RPMI-1640 medium
Description: (§1) More specifically, a determination of inhibitory concentration (IC) of hassallidin A and hassallidin B for various fungi, Candida species and Candida strains were performed with different media (RPMI-1640 or SAB or AM3) in a microdilution assay by following the guidelines in NCCLS documents M^38-P^25 and M27-A2^26 carried out as follows Each substance was dissolved with 100% dimethyl sulfoxide (Serva, Heidelberg, Germany) to give a stock solution of 3.2 mg/ml followed by nine log2 dilution steps with the solvent. This served as a 100-fold concentrated dilution series ranging from 1.6 mg/ml to 0.003 mg/ml of the test substance. The final concentration of the test substance was 16 µg/ml to 0.031 µg/ml.
(§2) Therefore the 100-fold concentrated dilution series (with 100% DMSO) was diluted to the final concentration by two dilution steps: • (1) Each concentration of the 100-fold concentrated substance was diluted with test medium for 1:50 (for ex.: adding of 13 µl of the test substance to 637 µl test medium). • (2) 100 µl of each 1:50 diluted concentration was filled in a row of wells of a microtitre plate. One well was without the substance but with the 1:50 diluted solvent serving as growth control.
(§3) A further 1:2 dilution of the antifungal was made by the inoculation of each well with 100 µl of the test organism, which was suspended in the test medium. The remaining well of the row was used for sterility control of the medium. The inoculum was strictly prepared according the NCCLS^25 guidelines, resulting in […] for Candida-species and Cryptococcus neoformans. For hyphomycetes CFU's were tenfold higher (see NCCLS). ^26 The growth of the hyphomycetes respectively the inhibition was measured by visual reading with the help of a reading mirror; scoring was done according to NCCLS :^26 score 0 corresponds to a optical clear well or an IC95 or higher, score 1 corresponds to an inhibition of 80 percent (IC80) and the score 2 of the NCCLS definition corresponds to the IC50 values in the tables. The growth of the yeasts was measured spectrophotometrically by a microplate reader (MR 5000, Dynatech laboratories) at 630 nm displaying the optical density (OD). The percent inhibition IC50, IC80 or IC95 (corresponding the scores of 2, 1 and 0) was calculated by the following formula: (100−[(ODof the well−ODof the medium)] × 100)/((ODof the growth control−ODof the medium).) [formula] Table 3. Test series for determining IC values of hassallidin A and B in different media using Candida albicans and Candida krusei. The IC values were measured after 24 h and 48 h at 30 °C.

[2] = test system: Aspergillus fumigatus RKI 914/02; format: cell-based; details: RPMI-1640 medium
Description: as §1, §2, §3

[3] = test system: Candida albicans ATCC 90028; format: cell-based; details: RPMI-1640 medium
Description: as §1, §2, §3

Candida spp. I = format: cell-based; details: RPMI-1640 medium
Description: as §1, §2, §3

ATCC 6258 (QC) = format: cell-based, Candida krusei; details: Table 4 series, RPMI-1640 medium

## hassallidin A
[1]; 35°C/24h
  IC50: 2 µg/mL
  IC80: 2 µg/mL
  IC95: 2 µg/mL
[1]; 35°C/48h
  IC80: 4 µg/mL
  IC95: 4 µg/mL
[2]; 35°C/24h
  IC50: 2 µg/mL
  IC80: 2 µg/mL
  IC95: 2 µg/mL
[2]; 35°C/48h
  IC50: 2 µg/mL
  IC80: 2 µg/mL
  IC95: 4 µg/mL
[3]; 35°C/24h
  IC50: 8 µg/mL
  IC80: 8 µg/mL
  IC95: 8 µg/mL
[3]; 35°C/48h
  IC50: 8 µg/mL
  IC80: 8 µg/mL
  IC95: 8 µg/mL
Candida spp. I; 35°C/24h
  IC50: 8 µg/mL
  IC80: 8 µg/mL
  IC95: 8 µg/mL
Candida spp. I; 35°C/48h
  IC50: 8 µg/mL
  IC80: 8 µg/mL
  IC95: 8 µg/mL
ATCC 6258 (QC); 35°C/24h
  IC80: 8 µg/mL
  IC95: 8 µg/mL
ATCC 6258 (QC); 35°C/48h
  IC80: 16 µg/mL
